Laboratory results reported in patent US8134007B2, “Pyridine derivatives” (Pfizer Inc., priority 2007, dated 2012).
Where two headings read alike, the source gives them in different places.

Assays:
Format in all cases: cell-based
Human Nav1.8 = biological target: T1, Human Nav1.8 (Homo sapiens, UniProt Q9Y5Y9); experiment: VIPR Assay for Nav1.8 Compounds (FRET membrane potential, deltamethrin opener)
T1 construct: expressed in transfected cells; host or cells: HEK293

Human Nav1.5 = biological target: T2, Human Nav1.5 (Homo sapiens, UniProt Q14524); experiment: Nav1.5 Assay (VIPR, HEK293 cells)
T2 construct: expressed in transfected cells; host or cells: HEK293
T2 sequence (Q14524 whole entry): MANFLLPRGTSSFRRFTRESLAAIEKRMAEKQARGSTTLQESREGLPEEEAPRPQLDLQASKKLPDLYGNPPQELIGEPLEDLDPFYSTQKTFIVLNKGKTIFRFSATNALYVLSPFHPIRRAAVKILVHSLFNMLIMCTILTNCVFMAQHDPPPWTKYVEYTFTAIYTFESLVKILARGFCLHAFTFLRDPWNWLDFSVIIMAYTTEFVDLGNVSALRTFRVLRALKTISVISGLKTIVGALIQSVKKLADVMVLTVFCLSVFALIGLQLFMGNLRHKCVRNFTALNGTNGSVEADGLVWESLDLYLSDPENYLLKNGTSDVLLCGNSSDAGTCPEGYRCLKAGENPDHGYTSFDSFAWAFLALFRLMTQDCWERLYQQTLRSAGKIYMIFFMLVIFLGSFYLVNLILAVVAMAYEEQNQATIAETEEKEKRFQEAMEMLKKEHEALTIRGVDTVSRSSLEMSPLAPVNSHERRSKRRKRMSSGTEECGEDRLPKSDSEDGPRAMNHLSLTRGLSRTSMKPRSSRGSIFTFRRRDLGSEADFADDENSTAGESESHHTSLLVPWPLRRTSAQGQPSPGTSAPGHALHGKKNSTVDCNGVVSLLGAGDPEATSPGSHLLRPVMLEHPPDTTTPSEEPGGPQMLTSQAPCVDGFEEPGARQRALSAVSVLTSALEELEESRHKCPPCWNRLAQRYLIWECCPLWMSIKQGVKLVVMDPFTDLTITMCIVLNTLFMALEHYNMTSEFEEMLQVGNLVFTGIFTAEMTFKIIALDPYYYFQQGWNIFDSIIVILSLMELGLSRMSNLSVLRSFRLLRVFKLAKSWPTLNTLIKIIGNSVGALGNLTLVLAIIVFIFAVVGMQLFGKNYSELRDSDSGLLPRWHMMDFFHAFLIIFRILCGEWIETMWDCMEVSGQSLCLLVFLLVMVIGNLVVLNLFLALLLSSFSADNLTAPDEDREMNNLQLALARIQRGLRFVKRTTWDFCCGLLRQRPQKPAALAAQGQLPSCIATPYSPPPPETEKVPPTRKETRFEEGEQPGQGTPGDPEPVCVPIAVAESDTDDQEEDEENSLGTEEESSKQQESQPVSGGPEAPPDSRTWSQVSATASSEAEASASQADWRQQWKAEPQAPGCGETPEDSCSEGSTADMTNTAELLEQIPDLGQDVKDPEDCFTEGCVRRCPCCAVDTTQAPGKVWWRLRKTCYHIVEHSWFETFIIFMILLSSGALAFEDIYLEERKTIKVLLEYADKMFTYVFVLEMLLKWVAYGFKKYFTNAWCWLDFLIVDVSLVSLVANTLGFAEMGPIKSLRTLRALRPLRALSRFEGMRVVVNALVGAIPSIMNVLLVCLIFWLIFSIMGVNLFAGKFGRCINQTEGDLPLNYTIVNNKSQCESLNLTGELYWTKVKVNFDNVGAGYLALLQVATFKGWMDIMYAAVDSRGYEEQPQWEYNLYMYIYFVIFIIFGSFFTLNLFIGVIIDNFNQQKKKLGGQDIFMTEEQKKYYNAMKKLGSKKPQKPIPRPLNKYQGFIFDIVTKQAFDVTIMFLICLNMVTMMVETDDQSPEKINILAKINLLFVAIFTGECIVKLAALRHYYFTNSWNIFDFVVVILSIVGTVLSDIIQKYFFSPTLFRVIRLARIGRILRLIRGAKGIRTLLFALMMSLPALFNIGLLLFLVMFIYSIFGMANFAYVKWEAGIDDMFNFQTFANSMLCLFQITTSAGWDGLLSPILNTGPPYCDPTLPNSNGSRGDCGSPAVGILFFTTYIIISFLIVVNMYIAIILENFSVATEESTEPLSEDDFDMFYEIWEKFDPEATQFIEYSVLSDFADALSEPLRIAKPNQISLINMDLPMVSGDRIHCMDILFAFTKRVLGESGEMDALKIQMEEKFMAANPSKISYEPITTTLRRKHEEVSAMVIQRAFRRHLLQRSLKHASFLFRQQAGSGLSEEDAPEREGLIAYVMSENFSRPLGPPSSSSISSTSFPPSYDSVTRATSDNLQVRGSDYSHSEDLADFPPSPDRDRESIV
Procedure: The Nav1.5 assay is performed in HEK293 cells expressing Human Nav1.5 in the same way as the Nav1.8 assay.
Where replicate experiments were conducted resulting in multiple sets of data for a test compound, the data presented represent the average value from all replicate experiments.

[1] = test system: tetrodotoxin-sensitive voltage-gated sodium channels including NaV1.2, NaV1.3 and NaV1.7; experiment: TTX-S Assay (VIPR, SHSY-5Y cell line, veratridine opener); conditions: read-out: TTX-S IC50, veratridine 50 μM opener, average of replicates
[2] = VIPR FRET membrane potential assay, deltamethrin opener, average of replicates, read-out: Nav1.8 IC50
[3] = HEK293 cells expressing Human Nav1.5, average of replicates, read-out: Nav1.5 IC50

T1 sequence (Q9Y5Y9 whole entry): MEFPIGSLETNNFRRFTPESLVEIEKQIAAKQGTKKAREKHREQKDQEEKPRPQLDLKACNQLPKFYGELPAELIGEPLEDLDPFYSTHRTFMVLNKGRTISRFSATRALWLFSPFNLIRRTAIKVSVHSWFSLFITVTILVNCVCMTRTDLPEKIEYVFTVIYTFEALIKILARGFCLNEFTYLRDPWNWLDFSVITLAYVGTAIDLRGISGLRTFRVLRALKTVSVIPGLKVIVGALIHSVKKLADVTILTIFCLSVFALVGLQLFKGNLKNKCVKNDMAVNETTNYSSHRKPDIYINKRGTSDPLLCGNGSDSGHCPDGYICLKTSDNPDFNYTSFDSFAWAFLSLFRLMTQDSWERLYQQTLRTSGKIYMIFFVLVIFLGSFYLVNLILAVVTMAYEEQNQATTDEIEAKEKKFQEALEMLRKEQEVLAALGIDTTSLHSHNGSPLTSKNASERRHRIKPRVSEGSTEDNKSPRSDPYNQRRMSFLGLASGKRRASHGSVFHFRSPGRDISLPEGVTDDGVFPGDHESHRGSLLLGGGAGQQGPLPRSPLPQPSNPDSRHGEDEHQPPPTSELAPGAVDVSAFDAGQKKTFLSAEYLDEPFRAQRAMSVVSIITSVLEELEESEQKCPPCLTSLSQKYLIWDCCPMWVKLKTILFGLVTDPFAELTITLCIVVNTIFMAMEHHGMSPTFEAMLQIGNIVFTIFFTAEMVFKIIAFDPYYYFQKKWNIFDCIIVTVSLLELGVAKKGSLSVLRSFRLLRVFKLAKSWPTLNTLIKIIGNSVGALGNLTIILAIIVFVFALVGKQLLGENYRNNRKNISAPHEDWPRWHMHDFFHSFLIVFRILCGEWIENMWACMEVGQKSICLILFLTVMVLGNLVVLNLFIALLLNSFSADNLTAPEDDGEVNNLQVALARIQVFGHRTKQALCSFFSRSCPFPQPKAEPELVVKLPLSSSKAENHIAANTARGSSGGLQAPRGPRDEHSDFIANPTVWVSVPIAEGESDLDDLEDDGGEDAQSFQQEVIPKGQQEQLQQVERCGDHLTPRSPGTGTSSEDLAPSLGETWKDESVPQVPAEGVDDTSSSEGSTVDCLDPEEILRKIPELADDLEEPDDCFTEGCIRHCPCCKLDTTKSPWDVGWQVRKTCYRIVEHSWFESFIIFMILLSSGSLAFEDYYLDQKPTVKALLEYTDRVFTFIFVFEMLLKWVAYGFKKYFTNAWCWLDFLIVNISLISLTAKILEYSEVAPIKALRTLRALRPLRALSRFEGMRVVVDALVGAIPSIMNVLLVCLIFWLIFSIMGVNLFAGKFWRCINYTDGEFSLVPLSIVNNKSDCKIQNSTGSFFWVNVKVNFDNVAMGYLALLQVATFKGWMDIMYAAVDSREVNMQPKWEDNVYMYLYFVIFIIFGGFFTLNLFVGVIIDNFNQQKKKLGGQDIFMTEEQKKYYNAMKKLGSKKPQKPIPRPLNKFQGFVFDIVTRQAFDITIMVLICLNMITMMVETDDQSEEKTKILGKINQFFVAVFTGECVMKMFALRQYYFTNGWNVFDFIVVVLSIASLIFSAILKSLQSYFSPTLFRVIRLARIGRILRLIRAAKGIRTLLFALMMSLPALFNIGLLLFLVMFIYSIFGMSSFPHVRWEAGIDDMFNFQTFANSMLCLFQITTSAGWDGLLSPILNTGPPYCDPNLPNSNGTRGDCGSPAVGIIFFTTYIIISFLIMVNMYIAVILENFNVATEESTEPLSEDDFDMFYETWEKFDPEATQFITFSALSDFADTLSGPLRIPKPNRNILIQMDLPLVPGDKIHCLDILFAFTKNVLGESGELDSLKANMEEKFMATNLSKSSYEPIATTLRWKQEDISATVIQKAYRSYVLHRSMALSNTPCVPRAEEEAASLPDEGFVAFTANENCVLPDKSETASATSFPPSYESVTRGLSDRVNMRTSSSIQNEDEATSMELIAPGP

COc1ccc(OC(F)(F)F)c(-c2ccc(NC(=O)c3conc3C)nc2N)c1 [Example 148]
IC50 (Human Nav1.8; [2]): 0.56 µM
IC50 (Human Nav1.5; [3]): 10 µM

CC(C)Oc1ccc(F)cc1-c1ccc(NC(=O)c2ccnn2C)nc1N [Example 109, N-[6-amino-5-(5-fluoro-2-isopropoxyphenyl)pyridin-2-yl]-1-methyl-1H-pyrazole-5-carboxamide]
IC50 (Human Nav1.8; [2]): 5.7 µM
IC50 (Human Nav1.5; [3]): 27 µM

Nc1nc(NC(=O)c2ccccc2)ccc1-c1cc(Cl)ccc1Cl [Example 97]
IC50 (Human Nav1.8; [2]): 1.9 µM
IC50 [1]: 5.4 µM

Nc1nc(NC(=O)c2ccc(Cl)cc2)ccc1-c1cc(Cl)ccc1Cl [Example 100]
IC50 (Human Nav1.8; [2]): 6.3 µM
IC50 [1]: 4.4 µM

Cn1nccc1C(=O)Nc1ccc(-c2cc(Cl)cc(Cl)c2Cl)c(N)n1 [Example 4, N-[6-Amino-5-(2,3,5-trichlorophenyl)pyridin-2-yl]-1-methyl-1H-pyrazole-5-carboxamide]
IC50 (Human Nav1.8; [2]): 0.68 µM

CCCOc1ccc(F)cc1-c1ccc(NC(=O)c2ccnn2C)nc1N [Example 136]
IC50 (Human Nav1.8; [2]): 0.6 µM
IC50 (Human Nav1.5; [3]): 27 µM

COc1ccc(Cl)c(-c2ccc(NC(=O)c3ccno3)nc2N)c1 [Example 76, N-[6-Amino-5-(2-chloro-5-methoxyphenyl)pyridin-2-yl]isoxazole-5-carboxamide]
IC50 (Human Nav1.8; [2]): 0.86 µM
IC50 [1]: 6.5 µM

COC(C)COc1ccccc1-c1ccc(NC(=O)c2ccnn2C)nc1N (stereo not shown) [Example 160]
IC50 (Human Nav1.8; [2]): 13 µM
IC50 (Human Nav1.5; [3]): > 32 µM

Cc1nocc1C(=O)Nc1ccc(-c2cc(Cl)ccc2Cl)c(N)n1 [Example 25, N-[6-Amino-5-(2,5-dichlorophenyl)pyridin-2-yl]-3-methylisoxazole-4-carboxamide]
IC50 (Human Nav1.8; [2]): 1.6 µM
IC50 [1]: 10 µM

CCOc1ccc(Cl)c(-c2ccc(NC(=O)c3ccnn3C)nc2N)c1 [Example 150]
IC50 (Human Nav1.8; [2]): 2.5 µM
IC50 (Human Nav1.5; [3]): 19 µM

COC(C)COc1ccccc1-c1ccc(NC(=O)c2conc2C)nc1N (stereo not shown) [Example 161]
IC50 (Human Nav1.8; [2]): 6.7 µM
IC50 (Human Nav1.5; [3]): > 32 µM

COc1ccc(Cl)c(-c2ccc(NC(=O)c3ccnn3C(C)C)nc2N)c1 [Example 142]
IC50 (Human Nav1.8; [2]): 0.96 µM
IC50 (Human Nav1.5; [3]): 17 µM

COCc1ccc(Cl)c(-c2ccc(NC(=O)c3ccnn3C)nc2N)c1 [Example 141]
IC50 (Human Nav1.8; [2]): 5.4 µM
IC50 (Human Nav1.5; [3]): > 32 µM

COCCCOc1ccc(F)cc1-c1ccc(NC(=O)c2conc2C)nc1N [Example 152]
IC50 (Human Nav1.8; [2]): 1.9 µM
IC50 (Human Nav1.5; [3]): 31 µM

COCc1ccccc1-c1ccc(NC(=O)c2conc2C)nc1N [Example 129]
IC50 (Human Nav1.8; [2]): 3.5 µM
IC50 (Human Nav1.5; [3]): 20 µM

Cc1nocc1C(=O)Nc1ccc(-c2cc(F)ccc2OC(C)C)c(N)n1 [Example 145]
IC50 (Human Nav1.8; [2]): 1.5 µM
IC50 (Human Nav1.5; [3]): 28 µM

Cn1nccc1C(=O)Nc1ccc(-c2ccccc2CC(F)(F)F)c(N)n1 [Example 139]
IC50 (Human Nav1.8; [2]): 2.1 µM
IC50 (Human Nav1.5; [3]): 7.5 µM

CCOc1ccc(OC(F)(F)F)c(-c2ccc(NC(=O)c3ccnn3C)nc2N)c1 [Example 110, N-{6-amino-5-[5-ethoxy-2-(trifluoromethoxy)phenyl]pyridin-2-yl}-1-methyl-1H-pyrazole-5-carboxamide]
IC50 (Human Nav1.8; [2]): 1.5 µM
IC50 (Human Nav1.5; [3]): 2.3 µM

COCCOc1ccc(Cl)c(-c2ccc(NC(=O)c3ccnn3C)nc2N)c1 [Example 151]
IC50 (Human Nav1.8; [2]): 5.1 µM
IC50 (Human Nav1.5; [3]): > 32 µM

COCCCOc1ccccc1-c1ccc(NC(=O)c2ccnn2C)nc1N [Example 157]
IC50 (Human Nav1.8; [2]): 9.5 µM
IC50 (Human Nav1.5; [3]): > 32 µM

Cc1nocc1C(=O)Nc1ccc(-c2cc(Cl)cc(Cl)c2Cl)c(N)n1 [Example 28, N-[6-Amino-5-(2,3,5-trichlorophenyl)pyridin-2-yl]-3-methylisoxazole-4-carboxamide]
IC50 (Human Nav1.8; [2]): 0.67 µM
IC50 (Human Nav1.5; [3]): 9.5 µM

COc1cccc(-c2ccc(NC(=O)c3conc3C)nc2N)c1OC [Example 133]
IC50 (Human Nav1.8; [2]): 2.9 µM
IC50 (Human Nav1.5; [3]): > 32 µM

Nc1nc(NC(=O)c2ccno2)ccc1-c1cc(Cl)ccc1Cl [Example 75, N-[6-Amino-5-(2,5-dichlorophenyl)pyridin-2-yl]isoxazole-5-carboxamide]
IC50 (Human Nav1.8; [2]): 1.4 µM
IC50 [1]: 24 µM

Cn1nccc1C(=O)Nc1ccc(-c2cc(O)cc(Cl)c2Cl)c(N)n1 [Example 177]
IC50 (Human Nav1.8; [2]): 1.3 µM
IC50 (Human Nav1.5; [3]): 12 µM

Cc1nonc1C(=O)Nc1ccc(-c2cc(Cl)ccc2Cl)c(N)n1 [Example 44, N-[6-Amino-5-(2,5-dichlorophenyl)pyridin-2-yl]-4-methyl-1,2,5-oxadiazole-3-carboxamide]
IC50 (Human Nav1.8; [2]): 3.2 µM
IC50 [1]: 8.1 µM

COc1ccc(C(=O)Nc2ccc(-c3cc(Cl)ccc3Cl)c(N)n2)c(OC)c1 [Example 105]
IC50 (Human Nav1.8; [2]): 3.5 µM
IC50 [1]: 7.7 µM

COc1ccc(Cl)c(-c2ccc(NC(=O)c3nonc3C)nc2N)c1 [Example 45, N-[6-Amino-5-(2-chloro-5-methoxyphenyl)pyridin-2-yl]-4-methyl-1,2,5-oxadiazole-3-carboxamide]
IC50 (Human Nav1.8; [2]): 2.6 µM
IC50 [1]: 13 µM

Nc1nc(NC(=O)c2ccccc2)ccc1-c1ccccc1Cl [Example 98]
IC50 (Human Nav1.8; [2]): 2 µM
IC50 [1]: 10 µM

COCCOc1ccc(F)cc1-c1ccc(NC(=O)c2conc2C)nc1N [Example 169]
IC50 (Human Nav1.8; [2]): 4.9 µM
IC50 (Human Nav1.5; [3]): > 32 µM

COCCCOc1ccccc1-c1ccc(NC(=O)c2conc2C)nc1N [Example 156]
IC50 (Human Nav1.8; [2]): 3.1 µM
IC50 (Human Nav1.5; [3]): 31 µM

COc1ccc(OC(F)(F)F)c(-c2ccc(NC(=O)c3ccnn3C)nc2N)c1 [Example 140]
IC50 (Human Nav1.8; [2]): 0.43 µM
IC50 (Human Nav1.5; [3]): 18 µM

COC(C)COc1ccc(F)cc1-c1ccc(NC(=O)c2conc2C)nc1N (stereo not shown) [Example 159]
IC50 (Human Nav1.8; [2]): 4.7 µM
IC50 (Human Nav1.5; [3]): > 32 µM

CC(C)COc1ccccc1-c1ccc(NC(=O)c2ccnn2C)nc1N [Example 131]
IC50 (Human Nav1.8; [2]): 0.64 µM
IC50 (Human Nav1.5; [3]): 18 µM

Cc1oncc1C(=O)Nc1ccc(-c2cc(Cl)cc(Cl)c2Cl)c(N)n1 [Example 22, N-[6-Amino-5-(2,3,5-trichlorophenyl)pyridin-2-yl]-5-methylisoxazole-4-carboxamide]
IC50 (Human Nav1.8; [2]): 1 µM
IC50 (Human Nav1.5; [3]): 4.6 µM

CC(C)n1nccc1C(=O)Nc1ccc(-c2ccccc2Cl)c(N)n1 [Example 66, N-[6-Amino-5-(2-chlorophenyl)pyridin-2-yl]-1-isopropyl-1H-pyrazole-5-carboxamide]
IC50 (Human Nav1.8; [2]): 2.4 µM
IC50 [1]: 11 µM

COc1ccc(C(=O)Nc2ccc(-c3cc(Cl)ccc3Cl)c(N)n2)cc1OC [Example 103]
IC50 (Human Nav1.8; [2]): 4.1 µM
IC50 [1]: 8.4 µM

Nc1nc(NC(=O)c2ccno2)ccc1-c1ccccc1Cl [Example 77, N-[6-Amino-5-(2-chlorophenyl)pyridin-2-yl]isoxazole-5-carboxamide]
IC50 (Human Nav1.8; [2]): 5 µM
IC50 [1]: > 32 µM

COCCOc1ccccc1-c1ccc(NC(=O)c2conc2C)nc1N [Example 149]
IC50 (Human Nav1.8; [2]): 4 µM
IC50 (Human Nav1.5; [3]): > 32 µM

Nc1nc(NC(=O)c2ccccc2Cl)ccc1-c1cc(Cl)ccc1Cl [Example 101]
IC50 (Human Nav1.8; [2]): 3.7 µM
IC50 [1]: 6.2 µM

COCCOc1ccccc1-c1ccc(NC(=O)c2ccnn2C)nc1N [Example 155]
IC50 (Human Nav1.8; [2]): 18 µM
IC50 (Human Nav1.5; [3]): > 32 µM

COCc1ccc(Cl)c(-c2ccc(NC(=O)c3conc3C)nc2N)c1 [Example 138]
IC50 (Human Nav1.8; [2]): 1 µM
IC50 (Human Nav1.5; [3]): 23 µM

CCOc1ccc(F)cc1-c1ccc(NC(=O)c2ccnn2C)nc1N [Example 132]
IC50 (Human Nav1.8; [2]): 1.5 µM
IC50 (Human Nav1.5; [3]): > 32 µM

COc1cccc(-c2ccc(NC(=O)c3ccnn3C)nc2N)c1OC [Example 125]
IC50 (Human Nav1.8): 25 µM
IC50 (Human Nav1.5): > 32 µM

COCCOc1ccc(Cl)c(-c2ccc(NC(=O)c3conc3C)nc2N)c1 [Example 170]
IC50 (Human Nav1.8; [2]): 0.9 µM
IC50 (Human Nav1.5; [3]): 21 µM

Cc1ccc(OC(F)(F)F)c(-c2ccc(NC(=O)c3ccnn3C)nc2N)c1 [Example 137]
IC50 (Human Nav1.8; [2]): 1.2 µM
IC50 (Human Nav1.5; [3]): 18 µM

Cc1nocc1C(=O)Nc1ccc(-c2cc(F)ccc2OC2CCOC2)c(N)n1 (stereo not shown) [Example 167]
IC50 (Human Nav1.8; [2]): 11 µM
IC50 (Human Nav1.5; [3]): > 32 µM

CCOc1ccc(F)cc1-c1ccc(NC(=O)c2conc2C)nc1N [Example 135]
IC50 (Human Nav1.8; [2]): 0.28 µM
IC50 (Human Nav1.5; [3]): 26 µM

CCCCOc1ccc(F)cc1-c1ccc(NC(=O)c2ccnn2C)nc1N [Example 144]
IC50 (Human Nav1.8; [2]): 0.53 µM
IC50 (Human Nav1.5; [3]): 23 µM

Cn1nccc1C(=O)Nc1ccc(-c2ccccc2OCC2CC2)c(N)n1 [Example 143]
IC50 (Human Nav1.8; [2]): 0.97 µM
IC50 (Human Nav1.5; [3]): 24 µM

CCOc1ccc(Cl)c(-c2ccc(NC(=O)c3conc3C)nc2N)c1 [Example 154]
IC50 (Human Nav1.8; [2]): 0.47 µM
IC50 (Human Nav1.5; [3]): 10 µM

COCCCOc1ccc(F)cc1-c1ccc(NC(=O)c2ccnn2C)nc1N [Example 153]
IC50 (Human Nav1.8): 8.8 µM
IC50 (Human Nav1.5; [3]): > 32 µM

CCCOc1ccc(F)cc1-c1ccc(NC(=O)c2conc2C)nc1N [Example 162]
IC50 (Human Nav1.8; [2]): 0.09 µM
IC50 (Human Nav1.5; [3]): 7.7 µM

Cc1nocc1C(=O)Nc1ccc(-c2cc(O)cc(Cl)c2Cl)c(N)n1 [Example 176]
IC50 (Human Nav1.8; [2]): 1.4 µM
IC50 (Human Nav1.5; [3]): 10 µM

COc1ccc(F)cc1-c1ccc(NC(=O)c2conc2C)nc1N [Example 123]
IC50 (Human Nav1.8; [2]): 2.4 µM
IC50 (Human Nav1.5; [3]): > 32 µM

COCCOc1ccc(F)cc1-c1ccc(NC(=O)c2ccnn2C)nc1N [Example 147]
IC50 (Human Nav1.8; [2]): 12 µM
IC50 (Human Nav1.5; [3]): > 32 µM

Cc1nocc1C(=O)Nc1ccc(-c2cc(Cl)ccc2OCC(F)(F)F)c(N)n1 [Example 163]
IC50 (Human Nav1.8; [2]): 0.48 µM
IC50 (Human Nav1.5; [3]): 9.9 µM

COC(C)COc1ccc(F)cc1-c1ccc(NC(=O)c2ccnn2C)nc1N (stereo not shown) [Example 158]
IC50 (Human Nav1.8; [2]): 15 µM
IC50 (Human Nav1.5; [3]): > 32 µM

Cc1nocc1C(=O)Nc1ccc(-c2ccccc2OCC(F)(F)F)c(N)n1 [Example 134]
IC50 (Human Nav1.8; [2]): 0.41 µM
IC50 (Human Nav1.5; [3]): 18 µM

Cc1nocc1C(=O)Nc1ccc(-c2ccccc2CC(F)(F)F)c(N)n1 [Example 146]
IC50 (Human Nav1.5; [3]): 13 µM

CCOc1ccccc1-c1ccc(NC(=O)c2ccnn2C)nc1N [Example 130]
IC50 (Human Nav1.8; [2]): 2.3 µM
IC50 (Human Nav1.5; [3]): 22 µM
